The source of these data is paper PMC8916643, “Molecular physiology of pumiliotoxin sequestration in a poison frog” (PLoS ONE, 2022).

The structures appear in SMILES notation.

One data set has as its target T1, human recombinant CYP2C9 (Homo sapiens, UniProt P11712).
T1 construct: Eurofins Discovery Services (Eurofins Panlabs Inc) ran the assay
Briefly: CYP phenotyping panel (PTX 251D clearance). It is filed as in vitro ADME. To be noted: 1E-07 M PTX 251D; after 60 minutes. As for the experimental part:
(§1) Assays for human CYP activity (CYP phenotyping), CYP2D6 metabolite discovery (metID), ion channel inhibition (CiPA), and G-protein coupled receptor (GPCR) activity (gpcrMAX) were performed through Eurofins Discovery Services (Eurofins Panlabs Inc, St. Charles MO, USA). In the CYP phenotyping panel, human recombinant CYP1A2, CYP2B6, CYP2C8, CYP2C9, CYP2C19, CYP2D6, and CYP3A4 were included in the assay. A concentration of 1E-07 M of PTX 251D was tested, and the percent compound remaining was quantified at 0, 15, 30, 45, and 60 minutes using HPLC-MS/MS. As a positive control, a reference compound was used for each CYP tested (see S1 File for results). In the CYP2D6 metabolism assay, human recombinant CYP2D6 was incubated with an initial concentration of 10 μM and metabolites were quantified after 90 minutes using LC-MS/MS. Two replicates were used for the CYP phenotyping panel and one replicate was used for CYP2D6 metabolite assay. The CiPA assay was a cell-based QPatch on voltage-gated sodium channel NaV1.5 (peak and late/agonist), voltage-gated potassium channels Kv4.3/KChIP2, hERG, KCNQ1/minK, Kir2.1, and voltage-gated calcium channel Cav1.2. The concentrations of PTX 251D assayed were 3, 10, and 30 μM, and a reference compound for each channel was used (see S1 File for results and individual QPatch parameters). In the gpcrMAX assay a panel of 165 GPCRs was tested through the DiscoverX PathHunter beta-arrestin enzyme fragment complementation technology, and a concentration of 10 μM PTX 251D was tested for both agonist and antagonist activity along with a reference compound for each GPCR (see S1 File for results).

A further data set concerns the target T2, human recombinant CYP3A4 (Homo sapiens, UniProt P08684).
T2 construct: Eurofins Discovery Services (Eurofins Panlabs Inc) ran the assay
Kind of data set: CYP phenotyping panel (PTX 251D clearance). To be noted: 1E-07 M PTX 251D; after 60 minutes. It is filed as in vitro ADME. As to the method:
as §1

Data set [1] deals with T3, human recombinant CYP2C19 (Homo sapiens, UniProt P33261).
T3 construct: Eurofins Discovery Services (Eurofins Panlabs Inc) ran the assay
T3 sequence (P33261 whole entry): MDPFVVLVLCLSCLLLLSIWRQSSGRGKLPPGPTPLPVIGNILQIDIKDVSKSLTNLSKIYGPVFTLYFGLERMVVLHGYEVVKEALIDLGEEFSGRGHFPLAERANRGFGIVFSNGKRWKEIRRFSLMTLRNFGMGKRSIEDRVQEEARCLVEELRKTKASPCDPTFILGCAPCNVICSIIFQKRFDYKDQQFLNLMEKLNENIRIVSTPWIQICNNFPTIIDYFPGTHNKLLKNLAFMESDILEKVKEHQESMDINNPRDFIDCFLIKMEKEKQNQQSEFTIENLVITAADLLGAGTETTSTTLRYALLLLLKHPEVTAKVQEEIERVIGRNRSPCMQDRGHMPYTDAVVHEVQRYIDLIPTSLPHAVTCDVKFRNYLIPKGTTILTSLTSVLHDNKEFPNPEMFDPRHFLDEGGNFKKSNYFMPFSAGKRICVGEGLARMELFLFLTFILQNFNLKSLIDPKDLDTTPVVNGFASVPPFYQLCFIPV
Briefly: CYP phenotyping panel (PTX 251D clearance). It is filed as in vitro ADME. As to conditions: 1E-07 M PTX 251D; after 60 minutes. As to the method: as §1

Another data set deals with T4, human recombinant CYP2C8 (Homo sapiens, UniProt P10632).
T4 construct: Eurofins Discovery Services (Eurofins Panlabs Inc) ran the assay
T4 sequence (P10632 1-490): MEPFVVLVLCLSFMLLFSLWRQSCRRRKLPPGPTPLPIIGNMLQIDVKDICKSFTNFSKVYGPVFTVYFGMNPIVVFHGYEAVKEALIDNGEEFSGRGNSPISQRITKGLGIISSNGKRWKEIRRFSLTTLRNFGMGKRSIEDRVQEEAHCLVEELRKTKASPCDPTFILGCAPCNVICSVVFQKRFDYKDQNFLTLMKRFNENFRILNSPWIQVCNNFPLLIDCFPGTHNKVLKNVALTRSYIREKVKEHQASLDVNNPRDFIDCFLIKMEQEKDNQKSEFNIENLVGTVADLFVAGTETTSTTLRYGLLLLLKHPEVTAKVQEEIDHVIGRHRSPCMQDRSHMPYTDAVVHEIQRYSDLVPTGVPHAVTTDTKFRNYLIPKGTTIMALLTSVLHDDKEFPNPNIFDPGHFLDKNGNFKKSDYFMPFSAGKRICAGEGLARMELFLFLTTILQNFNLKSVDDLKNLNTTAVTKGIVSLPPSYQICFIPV
Kind of data set: CYP phenotyping panel (PTX 251D clearance). As to conditions: 1E-07 M PTX 251D; after 60 minutes. The class given is in vitro ADME. As to the method:
as §1

In the next data set the target is T5, human recombinant CYP1A2 (Homo sapiens, UniProt P05177).
T5 construct: Eurofins Discovery Services (Eurofins Panlabs Inc) ran the assay
T5 sequence (P05177 1-516): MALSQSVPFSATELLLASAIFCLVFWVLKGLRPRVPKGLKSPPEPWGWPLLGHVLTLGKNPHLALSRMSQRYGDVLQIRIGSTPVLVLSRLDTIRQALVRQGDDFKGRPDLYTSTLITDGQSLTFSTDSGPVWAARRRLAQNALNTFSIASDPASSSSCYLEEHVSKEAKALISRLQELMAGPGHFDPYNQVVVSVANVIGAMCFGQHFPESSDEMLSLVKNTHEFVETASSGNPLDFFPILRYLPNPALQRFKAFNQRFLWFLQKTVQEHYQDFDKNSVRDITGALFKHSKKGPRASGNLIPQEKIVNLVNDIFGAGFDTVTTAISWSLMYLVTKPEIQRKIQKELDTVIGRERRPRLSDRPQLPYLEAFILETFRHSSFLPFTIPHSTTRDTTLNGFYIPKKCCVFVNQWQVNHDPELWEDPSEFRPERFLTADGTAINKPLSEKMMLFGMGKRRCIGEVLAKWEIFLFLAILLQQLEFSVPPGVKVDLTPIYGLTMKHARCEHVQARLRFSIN
Briefly: CYP phenotyping panel (PTX 251D clearance). The class given is in vitro ADME. To be noted: 1E-07 M PTX 251D; after 60 minutes. As for the experimental part:
as §1

The target in another data set is T6, human recombinant CYP2D6 (Homo sapiens, UniProt P10635).
T6 construct: Eurofins Discovery Services (Eurofins Panlabs Inc) ran the assay
T6 sequence (P10635 whole entry): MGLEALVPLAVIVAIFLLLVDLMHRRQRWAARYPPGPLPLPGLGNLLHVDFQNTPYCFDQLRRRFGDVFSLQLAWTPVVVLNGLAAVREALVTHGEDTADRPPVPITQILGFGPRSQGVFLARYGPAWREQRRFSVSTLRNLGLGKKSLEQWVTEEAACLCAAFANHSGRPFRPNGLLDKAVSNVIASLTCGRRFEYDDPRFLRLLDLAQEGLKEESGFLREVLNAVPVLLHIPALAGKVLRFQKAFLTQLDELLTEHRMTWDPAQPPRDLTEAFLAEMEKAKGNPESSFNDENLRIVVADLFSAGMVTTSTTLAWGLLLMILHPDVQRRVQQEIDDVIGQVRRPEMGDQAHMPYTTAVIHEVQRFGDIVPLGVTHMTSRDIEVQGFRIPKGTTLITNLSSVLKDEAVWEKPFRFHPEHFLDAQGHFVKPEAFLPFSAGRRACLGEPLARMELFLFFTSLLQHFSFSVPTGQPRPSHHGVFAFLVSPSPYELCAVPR
Kind of data set: CYP phenotyping panel (PTX 251D clearance). The class given is in vitro ADME. To be noted: 1E-07 M PTX 251D. As for the experimental part: as §1

Another data set deals with panel of 165 GPCRs. Kind of data set: gpcrMAX PathHunter beta-arrestin GPCR panel (agonist and antagonist). It is filed as cell-based, human. To be noted: 10 uM; 165 GPCRs tested. As to the method:
as §1, with “In the gpcrMAX assay a panel of 165 GPCRs was tested through the DiscoverX PathHunter beta-arrestin enzyme fragment complementation technology, and a concentration of 10 μM PTX 251D was tested for both agonist and antagonist activity along with a reference compound for each GPCR (see S1 File for results).” left out

T1 sequence (P11712 whole entry): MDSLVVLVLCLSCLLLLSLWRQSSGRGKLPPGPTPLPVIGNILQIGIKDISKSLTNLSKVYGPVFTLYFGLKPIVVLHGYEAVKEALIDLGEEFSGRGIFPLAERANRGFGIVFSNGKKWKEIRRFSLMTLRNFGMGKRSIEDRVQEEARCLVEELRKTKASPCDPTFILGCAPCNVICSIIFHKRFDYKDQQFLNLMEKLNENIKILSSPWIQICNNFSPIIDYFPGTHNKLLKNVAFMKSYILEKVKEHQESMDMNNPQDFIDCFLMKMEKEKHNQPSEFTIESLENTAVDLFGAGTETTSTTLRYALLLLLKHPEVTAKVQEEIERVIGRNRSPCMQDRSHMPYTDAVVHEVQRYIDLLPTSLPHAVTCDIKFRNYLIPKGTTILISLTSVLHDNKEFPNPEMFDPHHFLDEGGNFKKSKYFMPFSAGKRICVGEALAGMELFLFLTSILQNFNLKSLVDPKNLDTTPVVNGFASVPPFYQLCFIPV
T2 sequence (P08684 whole entry): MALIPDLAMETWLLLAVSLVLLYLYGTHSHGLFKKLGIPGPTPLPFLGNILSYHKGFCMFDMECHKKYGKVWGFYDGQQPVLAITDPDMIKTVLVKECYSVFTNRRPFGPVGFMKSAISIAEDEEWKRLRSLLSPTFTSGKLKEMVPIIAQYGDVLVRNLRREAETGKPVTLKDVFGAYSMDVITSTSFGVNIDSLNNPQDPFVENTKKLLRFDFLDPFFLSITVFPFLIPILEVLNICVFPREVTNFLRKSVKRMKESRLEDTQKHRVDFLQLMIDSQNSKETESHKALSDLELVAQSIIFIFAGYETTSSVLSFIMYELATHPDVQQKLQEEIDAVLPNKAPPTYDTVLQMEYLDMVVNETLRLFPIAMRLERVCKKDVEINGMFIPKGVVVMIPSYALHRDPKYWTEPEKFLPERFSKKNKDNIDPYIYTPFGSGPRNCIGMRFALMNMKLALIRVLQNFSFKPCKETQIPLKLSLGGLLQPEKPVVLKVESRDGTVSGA

For the molecule `CCCCC(C)C=C1CN2CCCC2C(C)(O)C1` (centres unmarked) [PTX 251D, pumiliotoxin (PTX 251D)], the “clearance of PTX 251D by CYP2C9” value at human recombinant CYP2C9 is reported as “minimal clearance”. Moreover, the “clearance of PTX 251D by CYP3A4” value at human recombinant CYP3A4 was “minimal clearance”. In data set [1], the “clearance of PTX 251D by CYP2C19” value was “minimal clearance”. Also, the “clearance of PTX 251D by CYP2C8” value on human recombinant CYP2C8 was “minimal clearance”. Further, at human recombinant CYP1A2, the “clearance of PTX 251D by CYP1A2” value was “minimal clearance”. Further, the “PTX 251D remaining after incubation with CYP2D6” value on human recombinant CYP2D6 (after 15 minutes) is on record as “most of the initial compound depleted”. Besides, the “clearance of PTX 251D by CYP2D6” value on human recombinant CYP2D6 (percent compound remaining at 0-60 minutes, HPLC-MS/MS) is “rapid clearance”. The “inhibition or activation of GPCRs” value with panel of 165 GPCRs was “no significant inhibition or activation”.
